In patent publication US9783537B2, “3-(4-ethylnylphenyl) pyridopyrimidinone compounds and process for preparation thereof useful as potential anticancer agents” (Council of Scientific & Industrial Research, priority 2013, dated 2017):
“Also recorded” adds a separate entry of the source. Read-outs that look alike come from different tables or passages of the source.

Legend:
OVCAR-5 = experiment: SRB 48 h growth assay, Ovarian OVCAR-5; type: cell-based, human; details: OVCAR-5, Ovarian; for GI50 / CC50: Homo sapiens; for CC50: read-out: Log10 LC50 (converted)
SF-268 = experiment: SRB 48 h growth assay, CNS SF-268; type: cell-based, human; details: SF-268, CNS; for GI50 / CC50: Homo sapiens; for CC50: read-out: Log10 LC50 (converted)
MALME-3M = experiment: SRB 48 h growth assay, Melanoma MALME-3M; type: cell-based, human; details: for GI50 / CC50: Homo sapiens; for CC50: read-out: Log10 LC50 (converted)
SF-539 = experiment: SRB 48 h growth assay, CNS SF-539; type: cell-based, human; details: SF-539, CNS; for GI50 / CC50: Homo sapiens; for CC50: read-out: Log10 LC50 (converted)
MOLT-4 = experiment: SRB 48 h growth assay, Leukemia MOLT-4; type: cell-based, human; details: MOLT-4, Leukemia; for GI50 / CC50: Homo sapiens; for CC50: read-out: Log10 LC50 (converted)
COLO 205 = experiment: SRB 48 h growth assay, Colon COLO 205; type: cell-based, human; details: COLO 205, Colon; for GI50 / CC50: Homo sapiens; for CC50: read-out: Log10 LC50 (converted)
SK-MEL-28 = experiment: SRB 48 h growth assay, Melanoma SK-MEL-28; type: cell-based, human; details: SK-MEL-28, Melanoma; for GI50 / CC50: Homo sapiens; for CC50: read-out: Log10 LC50 (converted)
HCC-2998 = experiment: SRB 48 h growth assay, Colon HCC-2998; type: cell-based, human; details: HCC-2998, Colon; for GI50 / CC50: Homo sapiens; for CC50: read-out: Log10 LC50 (converted)
CAKI-1 = experiment: SRB 48 h growth assay, Renal CAKI-1; type: cell-based, human; details: CAKI-1, Renal; for GI50 / CC50: Homo sapiens; for CC50: read-out: Log10 LC50 (converted)
SN12C = experiment: SRB 48 h growth assay, Renal SN12C; type: cell-based, human; details: for GI50 / CC50: Homo sapiens; for CC50: read-out: Log10 LC50 (converted)
HT-29 = experiment: SRB 48 h growth assay, Colon HT-29; type: cell-based, human; details: HT-29, Colon; for GI50 / CC50: Homo sapiens; for CC50: read-out: Log10 LC50 (converted)
HCT-15 = experiment: SRB 48 h growth assay, Colon HCT-15; type: cell-based, human; details: HCT-15, Colon; for GI50 / CC50: Homo sapiens; for CC50: read-out: Log10 LC50 (converted)
UO-31 = experiment: SRB 48 h growth assay, Renal UO-31; type: cell-based, human; details: UO-31, Renal; for GI50 / CC50: Homo sapiens; for CC50: read-out: Log10 LC50 (converted)
[1] = test system: sixty human cancer cell lines; experiment: anticancer activity against sixty human cancer cell lines (NCI)
Description: The compounds were evaluated for anticancer activity against sixty human cancer cells derived from nine cancer types (leukemia cell line, non-small-cell lung cell line, colon cell line, CNS cell line, melanoma cell line, ovarian cell line, prostate cell line, renal cell line and breast cancer cell line) as shown in Table 1. For each compound, dose response curves for each cell line were measured at a minimum of five concentrations at 10 fold dilutions. A protocol of 48 h continuous drug exposure was used and a sulforhodamine B (SRB) protein assay was used to estimate cell viability or growth.

[2] = read-out: Growth Inhibition GI50
[3] = read-out: Log10 GI50 (converted)

How did the GI50 (OVCAR-5; [2]) turn out when `C#Cc1ccc(-n2c(/C=C/c3ccc4ccccc4c3)nc3ncccc3c2=O)cc1` [4s, (E)-3-(4-Ethynylphenyl)-2-(2-(naphthalen-2-yl)vinyl)pyrido[2,3-d]pyrimidin-4(3H)-one] was run?
Its GI50 is 6.88 µM.

And the GI50 (OVCAR-5; [3])?
The GI50 was 6.92 µM.

What about the CC50 (OVCAR-5) of the same molecule?
Its CC50 is > 100 µM.

What about the “Log10 TGI50” value (OVCAR-5) of the same molecule?
Its value is >−4.00.

And the GI50 (SF-268; [2])?
Its GI50 is 2600 nM.

What about the GI50 (SF-268; [3]) of the same molecule?
The GI50 was 2630 nM.

What about the CC50 (SF-268) of the same molecule?
The CC50 was > 100 µM.

And the “Log10 TGI50” value (SF-268)?
The value was >−4.00.

What about the “Log10 TGI50” value (MALME-3M) of the same molecule?
Its value is >−4.00.

What about the GI50 (MALME-3M; [2]) of the same molecule?
The GI50 was 4.97 µM.

What about the GI50 (MALME-3M; [3]) of the same molecule?
The GI50 was 6.31 µM.

What about the CC50 (MALME-3M) of the same molecule?
Its CC50 is > 100 µM.

What about the GI50 (SF-539; [2]) of the same molecule?
The GI50 was 2910 nM.

And the GI50 (SF-539; [3])?
The GI50 was 2880 nM.

What about the CC50 (SF-539) of the same molecule?
The CC50 was > 100 µM.

And the “Log10 TGI50” value (SF-539)?
The value was >−4.00.

What about the GI50 (MOLT-4; [2]) of the same molecule?
Its GI50 is 2000 nM.

And the GI50 (MOLT-4; [3])?
The GI50 was 2000 nM.

And the CC50 (MOLT-4)?
Its CC50 is > 100 µM.

What about the “Log10 TGI50” value (MOLT-4) of the same molecule?
The value was >−4.00.

What about the “Log10 TGI50” value (COLO 205) of the same molecule?
Its value is −5.44.

And the GI50 (COLO 205; [2])?
Its GI50 is 2060 nM.

What about the GI50 (COLO 205; [3]) of the same molecule?
The GI50 was 2040 nM.

What about the CC50 (COLO 205) of the same molecule?
Its CC50 is 3.63 µM.

And the GI50 (SK-MEL-28; [2])?
Its GI50 is 4.33 µM.

What about the GI50 (SK-MEL-28; [3]) of the same molecule?
The GI50 was 4.37 µM.

And the CC50 (SK-MEL-28)?
The CC50 was > 100 µM.

What about the “Log10 TGI50” value (SK-MEL-28) of the same molecule?
Its value is >−4.00.

What about the “Log10 TGI50” value (HCC-2998) of the same molecule?
Its value is −5.30.

And the GI50 (HCC-2998; [2])?
Its GI50 is 2320 nM.

What about the GI50 (HCC-2998; [3]) of the same molecule?
Its GI50 is 2290 nM.

What about the CC50 (HCC-2998) of the same molecule?
Its CC50 is 5.01 µM.

And the “Log10 TGI50” value (CAKI-1)?
The value was >−4.31.

What about the GI50 (CAKI-1; [2]) of the same molecule?
The GI50 was 2980 nM.

What about the GI50 (CAKI-1; [3]) of the same molecule?
Its GI50 is 2950 nM.

And the CC50 (CAKI-1)?
Its CC50 is > 100 µM.

What about the “Log10 TGI50” value (SN12C) of the same molecule?
The value was >−4.00.

And the GI50 (SN12C; [2])?
The GI50 was 3290 nM.

What about the GI50 (SN12C; [3]) of the same molecule?
Its GI50 is 3310 nM.

What about the CC50 (SN12C) of the same molecule?
The CC50 was > 100 µM.

What about the “Log10 TGI50” value (HT-29) of the same molecule?
Its value is >−4.00.

What about the GI50 (HT-29; [2]) of the same molecule?
Its GI50 is 3260 nM.

What about the GI50 (HT-29; [3]) of the same molecule?
The GI50 was 3240 nM.

And the CC50 (HT-29)?
Its CC50 is > 100 µM.

And the “Log10 TGI50” value (HCT-15)?
The value was >−4.00.

What about the GI50 (HCT-15; [2]) of the same molecule?
Its GI50 is 2910 nM.

What about the GI50 (HCT-15; [3]) of the same molecule?
Its GI50 is 2880 nM.

What about the CC50 (HCT-15) of the same molecule?
Its CC50 is > 100 µM.

What about the GI50 (UO-31; [2]) of the same molecule?
The GI50 was 3110 nM.

And the GI50 (UO-31; [3])?
The GI50 was 3090 nM.

And the CC50 (UO-31)?
Its CC50 is > 100 µM.

What about the “Log10 TGI50” value (UO-31) of the same molecule?
The value was >−4.00.

Which results are given for `C#Cc1ccc(-n2c(/C=C/c3ccc(C(F)(F)F)cc3)nc3ncccc3c2=O)cc1` [4c, (E)-3-(4-Ethynylphenyl)-2-(4-(trifluoromethyl)styryl)pyrido[2,3-d]pyrimidin-4(3H)-one]?
GI50 (OVCAR-5; [2]): 1.94 µM; GI50 (OVCAR-5; [3]): 1.95 µM; CC50 (OVCAR-5): 6.61 µM; Log10 TGI50 (OVCAR-5): −5.45; GI50 (SF-268; [2]): 2270 nM; GI50 (SF-268; [3]): 2290 nM; CC50 (SF-268): 24.5 µM; Log10 TGI50 (SF-268): −5.23; Log10 TGI50 (MALME-3M): −5.45; GI50 (MALME-3M; [2]): 1.64 µM; GI50 (MALME-3M; [3]): 1.66 µM; CC50 (MALME-3M): 7.76 µM; GI50 (SF-539; [2]): 1680 nM; GI50 (SF-539; [3]): 1660 nM; CC50 (SF-539): 6.03 µM; Log10 TGI50 (SF-539): −5.50; GI50 (MOLT-4; [2]): 3010 nM; GI50 (MOLT-4; [3]): 3020 nM; CC50 (MOLT-4): > 100 µM; Log10 TGI50 (MOLT-4): −5.06; Log10 TGI50 (COLO 205): −5.35; GI50 (COLO 205; [2]): 2230 nM; GI50 (COLO 205; [3]): 2240 nM; CC50 (COLO 205): 8.91 µM; GI50 (SK-MEL-28; [2]): 1.78 µM; GI50 (SK-MEL-28; [3]): 1.78 µM; CC50 (SK-MEL-28): 6.03 µM; Log10 TGI50 (SK-MEL-28): −5.49; Log10 TGI50 (HCC-2998): −5.46; GI50 (HCC-2998; [2]): 1960 nM; GI50 (HCC-2998; [3]): 1950 nM; CC50 (HCC-2998): 6.17 µM; Log10 TGI50 (CAKI-1): −5.21; GI50 (CAKI-1; [2]): 2260 nM; GI50 (CAKI-1; [3]): 2240 nM; CC50 (CAKI-1): > 100 µM; Log10 TGI50 (SN12C): −5.25; GI50 (SN12C; [2]): 2080 nM; GI50 (SN12C; [3]): 2090 nM; CC50 (SN12C): > 100 µM; Log10 TGI50 (HT-29): −5.40; GI50 (HT-29; [2]): 2030 nM; GI50 (HT-29; [3]): 2040 nM; CC50 (HT-29): 7.76 µM; Log10 TGI50 (HCT-15): −5.43; GI50 (HCT-15; [2]): 1740 nM; GI50 (HCT-15; [3]): 1740 nM; CC50 (HCT-15): 7.76 µM; GI50 (UO-31; [2]): 1430 nM; GI50 (UO-31; [3]): 1450 nM; CC50 (UO-31): 9.33 µM; Log10 TGI50 (UO-31): −5.44

Which GI50 (MOLT-4; [2]) does the source give for `C#Cc1ccc(-n2c(/C=C/c3ccc(Cl)c(F)c3)nc3ncccc3c2=O)cc1` [4g, (E)-2-(4-chloro-3-fluorostyryl)-3-(4-ethynylphenyl)pyrido[2,3-d]pyrimidin-4(3H)-one] here?
The GI50 was 540 nM.

And the GI50 (MOLT-4; [3])?
Its GI50 is 550 nM.

What about the CC50 (MOLT-4) of the same molecule?
The CC50 was > 100 µM.

And the “Log10 TGI50” value (MOLT-4)?
The value was >−4.00.

What about the “anticancer activity (in words)” value [1] of the same molecule?
The value was “highest anticancer activity; also recorded: good profile at nanomolar range growth inhibition activity in several cancer cell lines”.
